Measured values from US20020132845A1, “Compositions and methods for the prevention and treatment of tissue ischemia” (priority 2000, published 2002).

Tested on: primary neonate myocytes (cardiomyocytes)
Assay: Isolated heart cell (myocyte) preparation model of myocardial cell ischemia (Example 4)
Assay type: cell-based, rat
Settings: 37-111 micromolar
Description: Two-day old rat pups are removed from their mothers and placed in a sterile container. Pups are dipped quickly into 70% alcohol, then decapitated and the body is placed in an empty sterile tissue culture dish. An incision is made starting at the neck and progressing towards the belly, cutting through the sternum. The heart is removed and placed in a tissue culture dishes containing 1×HDS. The atria are trimmed, and the remaining ventricles are placed into a separate tissue culture dish containing 1×HDS, where they are sectioned into 3-4 pieces each. Ventricles are then transferred to a sterile 250 ml glass flask and the 1×HDS is removed. Twenty milliliters of pre-warmed collagenase solution are added to the ventricles, followed by incubation at 37° C. with shaking. After 30 minutes, the collagenase solution is removed and replaced with 20 ml fresh pre-warmed collagenase. Incubation is continued for an additional 30 minutes. At the end of the incubation, any tissue chunks are allowed to settle prior to removing the collagenase (containing the isolated cardiomyocytes) from the disrupted tissue pieces. The isolated myocytes are added to a 50 ml Falcon tube containing 2 ml Fetal Bovine Serum (FBS). […]
A small aliquot of the cell suspension is counted in a hemocytometer. […]

## bromo-quercetin
  preventing or reducing myocardial damage: effective
